Source: patent US20180289702A1, “LPA LEVEL REDUCTION FOR TREATING CENTRAL NERVOUS SYSTEM DISORDERS” (priority 2015, published 2018)

Columns and labels:
autotaxin = autotaxin (Homo sapiens, UniProt Q13822); settings: Gierse et al., 2010; cited from earlier work
PRG-1R346T+/− animals = assay: PPI in PRG-1R346T+/− knock-in mice; type: in vivo; settings: monoallelic PRG-1R346T+/− animals
Method: In order to investigate whether the described human mutation indeed results in a endophenotype for psychiatric disorders, the inventors produced an knock-in mouse line where the PRG-1^R346T mutated gene was introduced in place of the PRG-1 wild-type gene. Since only monoallelic PRG-1^R346T mutation carriers were detected, PRG-1^R346T+/− animals were used for the study, which correspond to the human in-vivo situation.
Animals received a single i.p. injection 3 hours prior to PPI.

wild type (WT) animals = assay: mEPSC recordings with PF8380, wild type; type: cell-based, mice
[1] = test system: hippocampal slices from PRG-1 KO mice; assay: evoked EPSCs in hippocampal slices; type: cell-based
[2] = test system: LPA species (LPA 16:0, 18:1, 18:2); assay: LPA species in cerebrospinal fluid (LC-ESI-MS/MS); type: in vivo; settings: PRG-1 Ko mice, intraperitoneal injection
Method: LPA analysis was performed with liquid chromatography-electrospray ionization-tandem mass spectrometry (LC-ESI-MS/MS). The LC-MS/MS system consisted in a hybrid triple quadrupole-ion trap QTrap 5500 mass spectrometer (AB Sciex, Germany) equipped with a Turbo-V-source operating in negative ESI mode, an Agilent 1200 binary HPLC pump, column oven (40° C.) and degasser and an HTC Pal autosampler.
Two cycles of […] extraction of LPAs were done with 1-buthanol after adding the internal standard LPA17:0 to the sample (50 μl sample, 20 μl internal standard in 500 μl 1-butanol). The combined organic phases were dried under a gentle stream of nitrogen at 45° C. and subsequently re-dissolved in 200 μl methanol.
For the chromatographic separation a C18 column (Mercury 20×2 mm, 3 μm, 100 Å) and precolumn were used (Phenomenex, Germany). A linear gradient was employed at 400 μl/min. Mobile phase A was water with ammonium formate 50 mM and formic acid (100:0.2, v/v) and mobile phase B acetonitrile/formic acid (100:0.1, v/v), total run time 7 min, injection volume 20 μl. The mass spectrometer operated in the negative ion mode with an electrospray voltage of −4500 V at 350° C. Multiple reaction monitoring (MRM) was used for quantification. […] Quantitation was performed with Analyst Software V1.5 (Applied Biosystems) using the internal standard method with 1/concentration^2 weighting. […]

[3] = test system: MCAO mouse model of stroke; assay: medial cerebral artery occlusion (MCAO) mouse model of stroke; type: in vivo, mice; settings: 30 mg/kg i.p. 3 hours prior to MCAO
Method: For stroke experiments, mice were anesthetized and occlusion of the medial cerebral artery (MCAO) was performed for 30 min (assessment after 3 days) or for 1 h (assessment after 1day) by introduction of an intraluminal filament as reported (Ploen et al., 2014). […] After 1 h or after 30 min of MCAO, respectively, mice recovered and were perfused 24 hours (1 h MCAO) or 72 hours (30 min MCAO) later. Brains were extracted, snap frozen and cryosectioned using a cryotome. Mounted brain slices were Nissl-Stained which allowed to measure infarct area and to calculate total infarct volume per animal. All measurements were performed in a blinded fashion. Data was assessed for normality and statistical analysis was performed using an one-tailed t-test.

[4] = test system: animal model of schizophrenia induced by ketamine; assay: ketamine-induced animal model of schizophrenia: PPI and open field hyperactivity; type: in vivo, mice
Description: In order to correlate these electrophysiological effects with behavior in these mice, the inventors first analyzed PPI after ketamine application. […] In sum, ATX-inhibition has the general potential to normalize E/I balance in psychiatric disorders associated with increased glutamatergic input and opens a new therapeutic avenue towards treatment of psychiatric disorders.

PRG-1−/− neurons = assay: spontaneous postsynaptic currents (sPSC) with PF8380; type: cell-based, mice; settings: 1 μm
PRG-1+/− mice = assay: pre-pulse inhibition (PPI) of the startle response in PRG-1+/− mice; type: in vivo; settings: i.p. 3 hours prior to PPI, level not different to wt
Method: Animals were treated using the in-vivo potent autotaxin inhibitor PF 8380 (Gierse et al., 2010). Animals received a single i.p. injection 3 hours prior to PPI.

mice = assay: open field locomotion of food deprived animals; type: in vivo; settings: OF 10 min; controls, food deprived controls and food deprived animals treated with PF8380

In the case of O=C(CCN1CCN(C(=O)OCc2cc(Cl)cc(Cl)c2)CC1)c1ccc2[nH]c(=O)oc2c1 [PF8380, 4-[3-(2,3-Dihydro-2-oxo-6-benzoxazolyl)-3-oxopropyl]-1-piperazinecarboxylic acid (3,5-dichlorophenyl)methyl ester], the “potency as inhibitor of the LPA-synthetizing enzyme autotaxin” value (autotaxin) is listed as “nanomolar potency”, the “Pre Pulse Inhibition (PPI)” value (PRG-1R346T+/− animals) is listed as “rescue the decreased PPI to WT values” and the mEPSC amplitudes (wild type (WT) animals) is listed as “did not affect”. For the same molecule, the mEPSC frequency (wild type (WT) animals) was “did not affect”, the PPR [1] was “increased” and the “evoked potentials (eEPSC, first stimulus)” value [1] was “significantly affected”. For the same molecule, the “second stimulus applied at an interval of 50 ms” value [1] was “did not alter”, the “main LPA species (LPA 16:0, 18:1, 18:2) in CSF” value [2] was “significant decrease” and the infarct size ([3]; after 1 day (1 h MCAO)) was “significantly reduced”. The infarct size ([3]; after 3 days (30 min MCAO)) was “significantly reduced”, the PPI [4] was “rescued to WT values” and the “hyperactivity following ketamine application in an open field setting” value [4] was “significantly reduced”. For the same molecule, the sPSC amplitude (PRG-1−/− neurons) was “not affecting”, the “spontaneous postsynaptic currents (sPSC)” value (PRG-1−/− neurons) was “significantly reduced” and the PPI-deficit (PRG-1+/− mice) was “significantly rescued”. The “locomotion in the open field, total distance” value (mice) was “did not display significant differences”.
